Experimental data as given in patent publication US20250074902A1, “FUSED BICYCLIC HETEROARYL AMIDE COMPOUND AS PROTEIN AGGREGATION INHIBITOR” (SHANGHAI JINGXIN BIOMEDICAL CO., LTD., priority 2021, published 2025).

Key:
[1] = Determination of half-life in C57BL/6 mice; format: in vivo; conditions: mouse, 2 mg/kg; male C57BL/6 mice, intravenous, 2 mpk, plasma
Protocol: C57BL/6 mice (male) were selected, and the compound of the present invention was intravenously administered at a dose of 2 mpk, About 0.03 mL of whole blood was collected from the mouse orbital venous plexus at 0 h before administration, 0.0833, 0.25, 0.5, 1, 2, 4, 6, 8 and 24 h after administration. The blood was placed in a centrifuge tube containing EDTA-K2 anticoagulant, and placed in crushed ice after collection. Centrifuge at 2000 g and 4° C. for 10 min within 0.5 hours, and 10 μL of plasma was quantitatively divided and placed in another clean centrifuge tube, placed in a −20° C. refrigerator, and the blood drug concentration was determined by LC-MS/MS method.

α-synuclein = target: T1, α-synuclein (Homo sapiens, UniProt P37840); assay: Detection of the ability of compounds to inhibit α-synuclein self-aggregation by HPLC; format: biochemical; conditions: test compound 200 μg/mL, α-synuclein 250 μg/ml, 37° C., 9 days; HPLC peak area of α-synuclein multimers vs model group; read-out: inhibition rate (%)
T1 construct: purchased Sino Biological
Protocol: The test compound (for poorly soluble compounds, dissolve with an appropriate amount of DMSO first) and fresh α-synuclein monomers (purchased from Sino Biological) were added to pure water to a final protein concentration of 250 μg/ml, and the concentration of the test compound was 200 μg/mL, followed by incubation at 37° C. for 9 days. The peak area of α-synuclein multimers after incubation was detected by HPLC and the inhibition rate was calculated. […] Inhibition rate=(peak area of model group−peak area of example group)/peak area of model group×100%.

[2] = Determination of brain/plasma ratio; format: in vivo; conditions: mouse, male C57BL/6 mice, oral 10 mg/kg, ratio of average drug concentration in brain tissue to plasma
Protocol: Male C57BL/6 mice were used as research subjects, and brain perfusion technology was used to investigate the pharmacokinetic characteristics of the compound of the present invention transported through the blood-brain barrier, and the drug concentrations in the blood and brain tissue samples of mice after 0.25 h, 1 h, 4 h and 8 h were detected, and the ratio of the average drug concentrations in brain tissue and plasma was calculated.
Oral administration solution (1.000 mg·ml^−1) of the compound of the present invention was prepared:
Weigh 3.116 mg of the compound and place it in an EP tube, then add DMS 0.156 mL, Solutol 0.312 mL and ultrapure water 2.648 mL (the volume ratio of the three is 5:10:85, v:v:v), vortex ultrasound to fully dissolve it, and the final actual concentration is 1.000 mg·mL-1 of the clear administration solution.
C57BL/6 mice (male), purchased from Sibeifu (Beijing) Biotechnology Co., Ltd., experimental animal production license number: SCXK (Beijing) 2019-0010.
Fasting: Overnight fasting, no water withdrawal, feed provided 4 hours after medication.
Select qualified healthy C57BL/6 mice, 3 per group. After oral administration (10 mg/kg), about 150 μL of whole blood was collected from the orbital venous plexus of mice at 0.25 h, 1 h, 4 h and 8 h after medication and placed in a centrifuge tube containing EDTA-K2 anticoagulant. After administration, the mice were anesthetized about 1 minute before the scheduled time point, and brain perfusion was performed at 0.25 h, 1 h, 4 h and 8 h after administration. After perfusion, the mouse brain tissue samples were dissected with ophthalmic scissors and ophthalmic forceps, and the remaining blood on the tissue surface was immediately rinsed with ultrapure water within 5 min, wiped dry, weighed, and 4 times the volume of acetonitrile-water solution (10:90, v:v) was added and homogenized, and then the homogenate was placed in a −20° C. refrigerator for testing. The collected samples were placed in an ice bath during the entire experimental operation.
According to the time points specified in the above experimental protocol, about 150 μL of whole blood was collected from the orbital venous plexus of C57BL/6 mice after administration and placed in a 1.5 mL centrifuge tube containing EDTAN-K2. The collected whole blood was centrifuged at 2000 g, 4° C. for 10 min, and all plasma was divided and placed in another clean centrifuge tube, and then placed in a −20° C. refrigerator for testing.
Adjust the peristaltic pump device to ensure that it works normally, the liquid flows out smoothly and stably, and there is no air in the flow path. Anesthetize the mice after administration with a mixed anesthetic of 70% CO2 and 30% O2, After the animal is fully anesthetized, quickly open the chest cavity with surgical scissors to expose the heart. […] Turn on the peristaltic pump switch and perfuse for 2-5 minutes. The perfusion fluid is 100 U/1000 mL heparin sodium saline. After the perfusion is completed, use ophthalmic scissors and ophthalmic forceps to dissect the mouse brain tissue sample, immediately rinse the remaining blood on the tissue surface with ultrapure water within 5 minutes, wipe dry, weigh, add 4 times the volume of acetonitrile-water solution (10:90, v:v) and homogenize, and then place the homogenate in a −20° C. refrigerator for testing.
Calculate the ratio of the average drug concentration in brain tissue to that in plasma, i.e., the brain/plasma ratio.

| Structure (SMILES) | half-life [1] | inhibition at 200 µg/mL (α-synuclein) | Kp at 4 h [2] |
| --- | --- | --- | --- |
| CCCCC(Cc1c[nH]c2ccccc12)NC(=O)c1cc2ccc(N3CCN(C4CC4)CC3)cc2s1 (centres unmarked) [Example 3, N-(1-(1H-indol-3-yl)hexane-2-yl)-6-(4-cyclopropylpiperazin-1-yl) benzo[b]-thiophene-2-carboxamide] | 1.46 h | 95.3% | 0.38 |
| CCCC[C@@H](Cc1c[nH]c2ccccc12)NC(=O)c1cc2ccc(N3CCN(C)CC3)cc2s1 [Example 42, (S)—N-(1-(1H-indol-3-yl)hexane-2-yl)-6-(4-methylpiperazin-1-yl) benzo[b]thiophene-2-carboxamide] | 1.17 h | 97.2% | 2.05 |
| CCCC[C@H](Cc1c[nH]c2ccccc12)NC(=O)c1cc2ccc(N3CCN(C)CC3)cc2s1 [Example 43, (R)—N-(1-(1H-indol-3-yl)hexane-2-yl)-6-(4-methylpiperazin-1-yl) benzo[b]thiophene-2-carboxamide] | 1.32 h | 98.6% | 1.7 |

Results, then the molecule that gave them:

| half-life [1] | inhibition at 200 µg/mL (α-synuclein) | Kp at 4 h [2] | Structure (SMILES) |
| --- | --- | --- | --- |
| 2.21 h | 98.3% | 1.53 | CCCCC(Cc1c[nH]c2ccccc12)NC(=O)c1cc2ccc(N3CCN(C)CC3)cc2s1 (racemic) [Example 1, N-(1-(1H-indol-3-yl)hexane-2-yl)-6-(4-methylpiperazin-1-yl)benzo[b]thiophene-2-carboxamide] |
| 0.39 h | – | 0.35 | CCCCC(Cc1c[nH]c2ccccc12)NC(=O)c1cnc(N2CCN(C)CC2)s1 (centres unmarked) [Comparative Example 1, reference compound] |
